Laboratory results reported in US11401243B2, “Quinoline derived small molecule inhibitors of nicotinamide N-methyltransferase (NNMT) and uses thereof” (priority 2017, dated 2022).

What was measured:
[1] = tested on: differentiated adipocytes (3T3 cells); experiment: Quantitative measurement of selected metabolites (NA, SAM, SAH, NAD+) in cultured cells; format: cell-based
Method: Sample processing was performed as described above.

[2] = tested on: diet-induced obese (DIO) mice; format: in vivo
Method: 17-week old, male DIO C57Bl/6 mice that have been fed high-fat diet (HFD) for 11 weeks (starting at week 6) were purchased from Jackson Labs (Jackson Laboratory; Bar Harbour, Me., USA). Mice were initially group housed (three/cage) and allowed to acclimate to the colony environment maintained at a constant temperature (21-23° C.) and humidity (40-50%) on a 12-hour light-dark cycle (lights on 0600-1800 h). Upon arrival, mice were continued to be fed HFD (Open Source Diets formula D12451 from Research Diets Inc.; New Brunswick, N.J., USA), containing 45% energy from fat. Water was available ad libitum.
All experiments were carried out in accordance with the Guide for the Care and Use of Laboratory Animals and with approval from the Institutional Animal Care and Use Committee at the University of Texas Medical Branch. Following acclimation for seven days, mice were single-housed and maintained on HFD for 4 additional weeks. Mice were intermittently handled, with body weights and food intake (hopper weights) measured 2-3 times per week. […] Mice in the vehicle cohort received three subcutaneous (SC) saline (1 ml/kg) injections/day (˜0930, 1330, 1730 h) and mice in the treatment cohort received three SC injections of the NNMT inhibitor 5-amino-1MQ at a dose of 20 mg/kg/injection for a total dose of […] of the parent compound (calculated according to free weight) for 11 days. […] Body weight and food intake were measured every other day. On day 12, mice were subjected to a 4 h fast period, then deeply anesthetized using isoflurane and trunk blood was collected by decapitation. Plasma was separated from every sample and the samples were submitted to Texas A&M Veterinary Medical Diagnostic Laboratory (TVMDL; College Station, Tex., USA) for plasma lipid-panel measurements (total cholesterol and triglycerides). Triglycerides values were not included for analysis since the measurements were confounded by sample hemolysis that interfered with the triglyceride reagent in the assay. Epididymal fat pads (epididymal white adipose tissue; EWAT) were excised from every mouse, weighed, and fixed in 10% buffered formalin for further processing.
Formalin-fixed EWAT samples were paraffin embedded, sectioned ([…]), and stained with hematoxylin and eosin (H&E). Images were obtained at 20× magnification using a light microscope (Leica DM LB) and digitally photographed for automated image analysis. Images were analyzed using the “Adiposoft” plug-in software in ImageJ (NIH). […]. Minimum and maximum diameter parameters were assigned to identify appropriate cells for the automated adipocyte area calculations, and cells along the boundary of the images were excluded from analyses. Three to five images/sample were analyzed, with automated analysis confirmed by visual inspection. Images corresponding to each sample were averaged to obtain the mean adipocyte area (μm2) per sample and combined to calculate group mean values for control (vehicle-treated EWAT samples) and treatment (NNMT inhibitor-treated EWAT samples) cohorts.

[3] = DIO mice, 20 mg/kg SC t.i.d., 11 days

C[n+]1cccc2c(N)cccc21 [1j, 5-amino-1-methylquinolin-1-ium iodide] was tested, and the “NAD+ levels vs. control” value ([1]; 10 μM) was “significant increase”, the “intracellular SAM levels relative to control adipocytes” value ([1]; 30 μM) was “significant increase” and the “increase in NAD+ levels relative to control adipocytes” value ([1]; 1-60 μM) was 1.2-1.6 fold. For the same molecule, the “intracellular levels of NA” value ([1]; one-way ANOVA) was “no statistically significant main effect”, the “intracellular levels of SAH” value ([1]; one-way ANOVA) was “no statistically significant main effect” and the “decrease in mass of EWAT compared with control DIO mice” value [2, 3] was roughly 35%. For the same molecule, the “total cumulative food intake” value [2, 3] was 26.2 ± 1.4 g, the “weight loss at end of treatment” value [2, 3] was 2.0 ± 0.6 g and the “weight loss from baseline measures” value [2, 3] was roughly 5.1%. The “body weight over treatment period compared to controls (in words)” value ([2]; DIO mice, 20 mg/kg SC three times daily, 11 days) was “progressive loss of body weight”, the “decrease in adipocyte size compared to control DIO mice” value ([2]; EWAT histology, 20 mg/kg SC t.i.d., 11 days) was greater than 30% and the “decrease in adipocyte volume compared to control DIO mice” value ([2]; EWAT histology, data not shown) was greater than 40%. The “tolerability in dose escalation study” value ([2]; mouse, in vivo, 60 mg/kg/day) was “well tolerated with no observable adverse effects” and the “total cholesterol levels lower relative to control DIO mice” value ([2]; plasma, 4 h fast, day 12) was roughly 30%.
